Measurements: patent US9694061B2, “Fully human antibodies to high molecular weight-melanoma associated antigen and uses thereof” (University of Pittsburgh—Of the Commonwealth System of …, priority 2008, dated 2017)

How the values were obtained:
[1] = tested on: scFv C21; experiment: Inhibition by synthetic peptides of scFv C21 binding to Colo38 cells; set-up: species or system human; conditions: for Inhibition of the binding of scFv C21 to HMW-MAA+ melanoma cells Colo38: soluble peptide, FIG. 8
Method: FIG. 8. Inhibition of the reactivity of scFv C21 with HMW-MAA^+ cells Colo38 by synthetic peptides P1C21 and P3C21 and by modified peptide P3C21. Varying concentrations of synthetic peptides P1C21 (-●-), P3C21(-▴-), P3A5 (-⋄-), P3V7 ( ? ) and P3S10 ( ? ) were incubated for 2 h at 4° C. with 50 μl of PP scFv (1:1600 dilution in 1% BSA-PBS) and 50 μl of biotinylated mAb 9E10 (2.5 μg/ml 1% BSA-PBS). The mixture was then transferred to wells containing cells Colo38. Binding of scFvC21 was detected using SA-HRP (top panel). Results are expressed as % inhibition. The unrelated peptide MART-1 (-∇-) and the scFv #28 (bottom panel) which recognizes an unrelated HMW-MAA determinant were used as specificity controls.
The ELISA to test the reactivity of soluble scFv antibodies with synthetic peptides and melanoma cells and of mouse immune sera with melanoma cells and with peptides was performed as described (Desai et al., Cancer Res 58:2417-2425, 1998; Desai et al., J Immunol 165:3275-3283, 2000; Matsui et al., J Immunol 139:2088-2095, 1987). Results are expressed as absorbance of optical density (O.D.) at 450 nm. The competition assay to map the antigenic determinant recognized by scFv C21 was performed by mixing biotinylated scFv C21 (0.25 μg/well) with two-fold dilutions of mouse mAb or scFv PP or by mixing biotinylated mAb (at an optimal amount giving absorbance, measured at 450 nm of 1.0) with two fold dilutions of scFv PP. […] Binding of biotinylated scFv antibodies and biotinylated mAb to target cells was measured by sequential incubation with SA-HRP and substrate as described (Noronha et al., J Immunol 161:2968-2976, 1998). The results are expressed as percent inhibition by mAb, scFv or peptide (competitor or inhibitor) of scFv or mAb binding to HMW-MAA^+ cells. The percent inhibition was calculated using the formula: % inhibition=((OD450 in the absence of inhibitor−OD450 in the presence of inhibitor)/OD450 in the absence of inhibitor)×100.

[2] = tested on: scFv C21; experiment: ELISA of synthetic peptides immobilized on plate with scFv C21; assay type: binding, human; conditions: peptide immobilized by 0.25% glutaraldehyde PBS
Method: FIG. 7. Reactivity in ELISA of scFv C21 with synthetic peptides derived from those isolated by panning the phage display peptide library X15 with scFv C21. Ninety-six well plates were coated for 2 h at 37° C. with synthetic peptides P1C21 ( ? ), P2C21 (125 μM) ( ? ), and P3C21 (125 μM) ( ? ), in 0.25% glutaradehyde-PBS. Following blocking with PBS-1% BSA, wells were incubated for 2 h at room temperature with 50 μl of PP scFv C21 at and 50 μl of biotinylated mAb 9E10 (2.5 μg/ml 1% BSA-PBS). Binding of scFv antibody to ? peptides was detected by addition of SA-HRP. Results are expressed as absorbance at […]. […]
The ELISA to test the reactivity of soluble scFv antibodies with synthetic peptides and melanoma cells and of mouse immune sera with melanoma cells and with peptides was performed as described (Desai et al., Cancer Res 58:2417-2425, 1998; Desai et al., J Immunol 165:3275-3283, 2000; Matsui et al., J Immunol 139:2088-2095, 1987). Results are expressed as absorbance of optical density (O.D.) at 450 nm. The competition assay to map the antigenic determinant recognized by scFv C21 was performed by mixing biotinylated scFv C21 (0.25 μg/well) with two-fold dilutions of mouse mAb or scFv PP or by mixing biotinylated mAb (at an optimal amount giving absorbance, measured at 450 nm of 1.0) with two fold dilutions of scFv PP. […]

[3] = tested on: HMW-MAA^+ cells Colo38; experiment: Delayed-type hypersensitivity (DTH) reaction in immunized mice; assay type: in vivo, BALB/c mice; conditions: mice immunized six times, cells injected day 132
Method: FIG. 12. DTH reaction to HMW-MAA^+ melanoma cells Colo38 in BALB/c mice immunized with peptide P1C21. Irradiated (20K rads) HMW-MAA^+ cells Colo38 (5×10^5 cells/mouse) ( ? ) and HMW-MAA^− LG2 cells (5×10^5 cells/mouse) (□) were injected on day 132 into the right and left hind footpad, respectively, of BALB/c mice, which had been immunized six times with peptide P1C21 on days 0, 21, 42, 63, 84 and 105. Amount of swelling induced by the injected cells was measured and calculated by subtracting the thickness of the footpad measured at time 0 h from that measured 24 h after the injection of cells. Mice immunized with control peptide MB1194-208 using the same schedule were injected at the same time point with either Colo38 or LG2 cells, and used as controls. *p<0.05.
Mice which had been immunized six times with peptide P1C21 or control peptide were injected on day 132 s.c. into the right and left hind footpads with irradiated HMW-MAA^+ cells Colo38 (5×10^5 cells/injection/) and HMW-MAA^− cells LG2 (5×10^5 cells/injection/), respectively. The thickness of each footpad was measured and calculated at the indicated times as previously described (Luo et al., J Immunol 174:7104-7110, 2005, herein incorporated by reference).

[4] = tested on: HMW-MAA^+ melanoma cells Colo38; experiment: Immunization of BALB/c mice with peptide-KLH conjugate, HMW-MAA-specific antibodies in sera; assay type: in vivo; conditions: control peptide immunization
Method: FIG. 9. Development of antibodies with selective reactivity with HMW-MAA^+ cells Colo38 in BALB/c mice immunized with peptide P1C21 and boosted with Colo 38 cells. Mice were immunized with KLH-conjugated peptide P1C21 ( ? ) (50 μg/injection) on day 0, 21, 42, 63, 84 and 105, and with HMW-MAA^+ Colo38 melanoma cells (5×10^5 cells/injection) on day 132. Sera were harvested one week before the first immunization, and one week after each immunization. Two-fold dilutions of sera (100 μl/well) were incubated with HMW-MAA^+ Colo38 melanoma cells (1×10^5/well). Following an additional incubation with HRP-conjugated goat anti-mouse IgG antibodies, the reaction was developed using TMB substrate. O.D. was measured at 450 nm. Results are expressed as the mean±SD of the highest dilution of sera giving 50% of the maximal binding to HMW-MAA^+ cells. Sera from mice immunized with peptide MB1194-208 were used as controls. *p<0.05.
FIG. 10. Flow cytometry analysis of HMW-MAA^+ M14#5/HMW-MAA melanoma cells stained with antibodies elicited by peptide P1C21 and HMW-MAA^+ cells Colo38 in BALB/c mice. […] Cells were then analyzed with a FACScan™ flow cytometry. Results are expressed as fluorescence intensity (empty histogram). […]
FIG. 11. […] Antigens were eluted from the immunoadsorbent, and analyzed by SDS-PAGE in an 8% polyacrylamide gel. […]

[5] = tested on: scFv C21; experiment: Kinetic binding studies by surface plasmon resonance (BIACORE 3000); set-up: species or system human; conditions: scFv C21 immobilized, 25° C., peptide 1 to 32 μM, 1:1 Langmurian model
Method: Binding experiments were performed with the surface plasmon resonance based biosensor instrument BIACORE™ 3000 (Biacore AB, Uppsala, Sweden), at 25° C. Immobilization of scFv C21 in the sensor surface was performed following the standard amine coupling procedure according to the manufacturer's instructions. Briefly, 35 μl of a solution containing 0.2 M N-ethyl-N′-(dimethylaminopropyl) carbodiimide (EDC) and 0.05M N-hydroxysuccinimide (NHS), were injected at a flow rate of 5 μl/min to activate carboxyl groups on the sensor chip surface. scFv C21 ([…] of 10 mM NaOAc buffer, pH 5.0) was flowed over the chip surface at a flow rate of 20 μl/min until the desired bound protein level was reached. Unreacted scFv C21 was washed out and unreacted activated groups were blocked by the injection of 35 μl of 1 M ethanolamine at 5 μl/min. The final immobilization response of scFv C21 was 3,000 RU. A reference surface was generated simultaneously under the same conditions but without scFv C21 injection and used as a blank to correct for instrument and buffer artifacts. Peptides were injected at variable concentrations at different flow rates from 20-100 μl/min. Peptides binding to scFv C21 immobilized on the chip was monitored in real time.
To exclude that binding constants obtained from SPR were not affected by either rebinding of the analyte or mass transport effects, studies were repeated at different flow rates (20-100 μl/min). Kinetic constants obtained at both flow rates remained unchanged.
To evaluate binding, peptides P1C21 and P3C21 were injected at concentrations ranging from 1 to 32 μM. The resulting sensograms were used for estimation of the kinetic constants (kon and koff) by global fitting to the 1:1 Langmurian interaction model. The binding constant (Kd) was calculated for each peptide as a koff/kon ratio.

| Koff [5] [s⁻¹] | Kon [5] [M⁻¹ s⁻¹] | Substance | Inhibition of the binding of scFv C21 to HMW-MAA+ melanoma cells Colo38 [1] | Reactivity of immobilized synthetic peptide with scFv C21 in ELISA [2] | DTH response: swelling of footpad injected with Colo38 cells versus LG2 cells [3] | Reactivity of immune sera with Colo38 cells [4] | Effect of Asp to Ser replacement at position 10 on ability of P3C21 to inhibit reactivity of scFv C21 with Colo38 cells ([1]; compared with P3C21) |
| --- | --- | --- | --- | --- | --- | --- | --- |
| – | – | EARNWHDFPIHPRTL (listed as Homo sapiens) [P2C21] | did not inhibit the binding of scFv C21 | reacted specifically with scFv C21 | – | – | – |
| – | – | MB1194-208: irrelevant peptide derived from the sequence of the proteasome subunit MB1, used as control (AYGVMDRGYSYDLEV) | – | – | no swelling of the footpad was observed | displayed no reactivity with Colo38 cells | – |
| 0.0655 | 2170 | RPYRYDPLGDLKSRH [P3C21] | inhibited the binding of scFv C21 to HMW-MAA^+ cells in a dose dependent fashion | did not | – | – | – |
| 0.00307 | 917 | RPYRYDPLGSLKSRH [P3S10] | – | – | – | – | only a slight effect |
